# Patent publication US6930203B2, “Gelling agents or thickeners” (Applied NanoSystems B.V., priority 2001, dated 2005)
# Experiment: Solvent scope of N,N′-dialkylaldaramides (1%) or N,N′-dialkylpentaramides (1%): gelation/solubility behaviour in solvents
# Assay type: physicochemical
# Set-up: key: g = gelation; s = soluble; p = precipitates; c = crystallizes; ns = not soluble; v = viscous; g* = unstable gel, precipitates; cg = crystalline gel
# Details: 1% gelling agent; 1,2-dichloroethane
# From the text: It will be understood that the use of the present gelling agents or thickeners to prepare a gel or to thicken a composition is also encompassed by the invention. As is well known, gelling behavior of compounds or compositions is highly unpredictable. […] Preferably, the gelling phenomenon is thermo reversible.
# Preferred examples include aromatic and nonaromatic hydrocarbons, alcohols, ethers, esters, aldehydes, alkanoic acids, epoxides, amines, halogenated hydrocarbons, silicon oils, vegetable oils, phosphoric esters, sulfoxides, water and mixtures thereof. In order to obtain a gel, the gelling agent or thickener is preferably mixed with the composition to be transformed to a gel in an amount of between 0.01 and 50 wt. %, based on the weight of the composition. In a preferred embodiment, the mixture of the gelling agent or thickener and the composition is heated to allow for an even better gel formation or thickening. Typically, the heating will involve raising the temperature of the mixture to about 30-175° C. until a clear solution is obtained. In an alternative embodiment, the gelling agent is first dissolved in a polar or apolar solvent and then added to or sprayed into a composition or solvent to be converted into a gel.
# Solvent scope of N,N′-dialkylaldaramides (1%) or N,N′-dialkylpentaramides (1%) 1-24 refers to the compounds prepared in Examples 1-23)
row,SMILES,"Gelation/solubility behaviour in 1,2-dichloroethane"
1,"CCCCCCCC/C=C\CCCCCCCCNC(=O)[C@@H](O)[C@@H](O)[C@H](O)[C@@H](O)C(=O)NCCCCCCCC/C=C\CCCCCCCC [Example 19, dioleyl D-glucaramide]",c
2,"CO[C@@H]([C@H](O)[C@H](O)C(=O)NC1CCCCC1)[C@@H](O)C(=O)NC1CCCCC1 [Example 20, 3-O-methyl-dicyclohexyl D-glucaramide]",c
3,"CCCCCCCCCCCCNC(=O)[C@@H](O)[C@@H](O)[C@H](OC)[C@@H](O)C(=O)NCCCCCCCCCCCC [Example 21, 3-O-methyl-didodecyl D-glucaramide]",p

# Same assay, conditions: 1% gelling agent; 2-octanol
row,SMILES,Gelation/solubility behaviour in 2-octanol
1,"CCCCCCCC/C=C\CCCCCCCCNC(=O)[C@@H](O)[C@@H](O)[C@H](O)[C@@H](O)C(=O)NCCCCCCCC/C=C\CCCCCCCC [Example 19, dioleyl D-glucaramide]",c
2,"CO[C@@H]([C@H](O)[C@H](O)C(=O)NC1CCCCC1)[C@@H](O)C(=O)NC1CCCCC1 [Example 20, 3-O-methyl-dicyclohexyl D-glucaramide]",p
3,"CCCCCCCCCCCCNC(=O)[C@@H](O)[C@@H](O)[C@H](OC)[C@@H](O)C(=O)NCCCCCCCCCCCC [Example 21, 3-O-methyl-didodecyl D-glucaramide]",c

# Same assay, conditions: 1% gelling agent; 2-propanol
row,SMILES,Gelation/solubility behaviour in 2-propanol
1,"CCCCCCCC/C=C\CCCCCCCCNC(=O)[C@@H](O)[C@@H](O)[C@H](O)[C@@H](O)C(=O)NCCCCCCCC/C=C\CCCCCCCC [Example 19, dioleyl D-glucaramide]",c
2,"CO[C@@H]([C@H](O)[C@H](O)C(=O)NC1CCCCC1)[C@@H](O)C(=O)NC1CCCCC1 [Example 20, 3-O-methyl-dicyclohexyl D-glucaramide]",c
3,"CCCCCCCCCCCCNC(=O)[C@@H](O)[C@@H](O)[C@H](OC)[C@@H](O)C(=O)NCCCCCCCCCCCC [Example 21, 3-O-methyl-didodecyl D-glucaramide]",p

# Same assay, conditions: 1% gelling agent; Cyclohexane
row,SMILES,Gelation/solubility behaviour in Cyclohexane
1,"CCCCCCCC/C=C\CCCCCCCCNC(=O)[C@@H](O)[C@@H](O)[C@H](O)[C@@H](O)C(=O)NCCCCCCCC/C=C\CCCCCCCC [Example 19, dioleyl D-glucaramide]",p
2,"CO[C@@H]([C@H](O)[C@H](O)C(=O)NC1CCCCC1)[C@@H](O)C(=O)NC1CCCCC1 [Example 20, 3-O-methyl-dicyclohexyl D-glucaramide]",ns
3,"CCCCCCCCCCCCNC(=O)[C@@H](O)[C@@H](O)[C@H](OC)[C@@H](O)C(=O)NCCCCCCCCCCCC [Example 21, 3-O-methyl-didodecyl D-glucaramide]",g

# Same assay, conditions: 1% gelling agent; Dimethylsulfoxide
row,SMILES,Gelation/solubility behaviour in Dimethylsulfoxide
1,"CCCCCCCC/C=C\CCCCCCCCNC(=O)[C@@H](O)[C@@H](O)[C@H](O)[C@@H](O)C(=O)NCCCCCCCC/C=C\CCCCCCCC [Example 19, dioleyl D-glucaramide]",c
2,"CO[C@@H]([C@H](O)[C@H](O)C(=O)NC1CCCCC1)[C@@H](O)C(=O)NC1CCCCC1 [Example 20, 3-O-methyl-dicyclohexyl D-glucaramide]",s
3,"CCCCCCCCCCCCNC(=O)[C@@H](O)[C@@H](O)[C@H](OC)[C@@H](O)C(=O)NCCCCCCCCCCCC [Example 21, 3-O-methyl-didodecyl D-glucaramide]",p

# Same assay, conditions: 1% gelling agent; Ethanol
row,SMILES,Gelation/solubility behaviour in Ethanol
1,"CCCCCCCC/C=C\CCCCCCCCNC(=O)[C@@H](O)[C@@H](O)[C@H](O)[C@@H](O)C(=O)NCCCCCCCC/C=C\CCCCCCCC [Example 19, dioleyl D-glucaramide]",c
2,"CO[C@@H]([C@H](O)[C@H](O)C(=O)NC1CCCCC1)[C@@H](O)C(=O)NC1CCCCC1 [Example 20, 3-O-methyl-dicyclohexyl D-glucaramide]",c
3,"CCCCCCCCCCCCNC(=O)[C@@H](O)[C@@H](O)[C@H](OC)[C@@H](O)C(=O)NCCCCCCCCCCCC [Example 21, 3-O-methyl-didodecyl D-glucaramide]",p

# Same assay, conditions: 1% gelling agent; Hexadecane
row,SMILES,Gelation/solubility behaviour in Hexadecane
1,"CCCCCCCC/C=C\CCCCCCCCNC(=O)[C@@H](O)[C@@H](O)[C@H](O)[C@@H](O)C(=O)NCCCCCCCC/C=C\CCCCCCCC [Example 19, dioleyl D-glucaramide]",p
2,"CO[C@@H]([C@H](O)[C@H](O)C(=O)NC1CCCCC1)[C@@H](O)C(=O)NC1CCCCC1 [Example 20, 3-O-methyl-dicyclohexyl D-glucaramide]",ns
3,"CCCCCCCCCCCCNC(=O)[C@@H](O)[C@@H](O)[C@H](OC)[C@@H](O)C(=O)NCCCCCCCCCCCC [Example 21, 3-O-methyl-didodecyl D-glucaramide]",p

# Same assay, conditions: 1% gelling agent; Toluene
row,SMILES,Gelation/solubility behaviour in Toluene
1,"CCCCCCCC/C=C\CCCCCCCCNC(=O)[C@@H](O)[C@@H](O)[C@H](O)[C@@H](O)C(=O)NCCCCCCCC/C=C\CCCCCCCC [Example 19, dioleyl D-glucaramide]",p
2,"CO[C@@H]([C@H](O)[C@H](O)C(=O)NC1CCCCC1)[C@@H](O)C(=O)NC1CCCCC1 [Example 20, 3-O-methyl-dicyclohexyl D-glucaramide]",p
3,"CCCCCCCCCCCCNC(=O)[C@@H](O)[C@@H](O)[C@H](OC)[C@@H](O)C(=O)NCCCCCCCCCCCC [Example 21, 3-O-methyl-didodecyl D-glucaramide]",p

# Same assay, conditions: 1% gelling agent; Water
row,SMILES,Gelation/solubility behaviour in Water
1,"CCCCCCCC/C=C\CCCCCCCCNC(=O)[C@@H](O)[C@@H](O)[C@H](O)[C@@H](O)C(=O)NCCCCCCCC/C=C\CCCCCCCC [Example 19, dioleyl D-glucaramide]",ns
2,"CO[C@@H]([C@H](O)[C@H](O)C(=O)NC1CCCCC1)[C@@H](O)C(=O)NC1CCCCC1 [Example 20, 3-O-methyl-dicyclohexyl D-glucaramide]",ns
3,"CCCCCCCCCCCCNC(=O)[C@@H](O)[C@@H](O)[C@H](OC)[C@@H](O)C(=O)NCCCCCCCCCCCC [Example 21, 3-O-methyl-didodecyl D-glucaramide]",ns

# Same assay, conditions: 1% gelling agent; methyl benzoic acid
row,SMILES,Gelation/solubility behaviour in methyl benzoic acid
1,"CCCCCCCCCCCCNC(=O)[C@@H](O)[C@@H](O)[C@H](OC)[C@@H](O)C(=O)NCCCCCCCCCCCC [Example 21, 3-O-methyl-didodecyl D-glucaramide]",p

# Same assay, conditions: 1% gelling agent; n-butylacetate
row,SMILES,Gelation/solubility behaviour in n-butylacetate
1,"CCCCCCCC/C=C\CCCCCCCCNC(=O)[C@@H](O)[C@@H](O)[C@H](O)[C@@H](O)C(=O)NCCCCCCCC/C=C\CCCCCCCC [Example 19, dioleyl D-glucaramide]",c
2,"CO[C@@H]([C@H](O)[C@H](O)C(=O)NC1CCCCC1)[C@@H](O)C(=O)NC1CCCCC1 [Example 20, 3-O-methyl-dicyclohexyl D-glucaramide]",p
3,"CCCCCCCCCCCCNC(=O)[C@@H](O)[C@@H](O)[C@H](OC)[C@@H](O)C(=O)NCCCCCCCCCCCC [Example 21, 3-O-methyl-didodecyl D-glucaramide]",c

# Same assay, conditions: 1% gelling agent; p-xylene
row,SMILES,Gelation/solubility behaviour in p-xylene
1,"CCCCCCCC/C=C\CCCCCCCCNC(=O)[C@@H](O)[C@@H](O)[C@H](O)[C@@H](O)C(=O)NCCCCCCCC/C=C\CCCCCCCC [Example 19, dioleyl D-glucaramide]",p
2,"CO[C@@H]([C@H](O)[C@H](O)C(=O)NC1CCCCC1)[C@@H](O)C(=O)NC1CCCCC1 [Example 20, 3-O-methyl-dicyclohexyl D-glucaramide]",p
3,"CCCCCCCCCCCCNC(=O)[C@@H](O)[C@@H](O)[C@H](OC)[C@@H](O)C(=O)NCCCCCCCCCCCC [Example 21, 3-O-methyl-didodecyl D-glucaramide]",p

# Same assay, conditions: 1% gelling agent; silicon oil
row,SMILES,Gelation/solubility behaviour in silicon oil
1,"CCCCCCCCCCCCNC(=O)[C@@H](O)[C@@H](O)[C@H](OC)[C@@H](O)C(=O)NCCCCCCCCCCCC [Example 21, 3-O-methyl-didodecyl D-glucaramide]",v
